Measurements: patent EP0335369A2, “New anthracycline derivatives and processes for the preparation of the same” (priority 1988, dated 1989)
Converted amounts (≈) assume the structure as drawn. Like-named read-outs stand apart in the source and are kept apart here.

Assays:
Leukemia L-1210 cells [1] = experiment: Test 1: antitumor activity against leukemia induced in CDF1 mice by Leukemia L-1210 cells (life-span increase); type: in vivo; settings: intraperitoneally once per day for 9 consecutive days, observation 60 days
Description: Antitumor activities against leukemia in CDF, mice as induced by mouse leukemia, Leukemia L-1210 cells
After an elapsed time of 24 hours, a compounds of the formula (I) of this invention to be tested was administered intraperitoneally for 9 consecutive days once per day. Observation was made for 60 days, where survival days of each mouse tested were recorded. In comparison with the control test wherein mice were treated with the administration of physiological saline alone, the increase (%) in the life-span of the treated mice was calculated as T/C %, where T is the mean survival days of the treated animals and C is the mean survival days of the untreated control animals. For the comparison, daunomycin and adriamycin were also tested in the same manner.

[2] = Solubility in phosphate buffer solution of pH 7.4 at room temperature; type: physicochemical; settings: for solubility: room temperature
Leukemia L-1210 cells [3] = experiment: Test 3: antitumor activity against leukemia induced in CDF1 mice by Leukemia L-1210 cells (procedure of Test 1 repeated); type: in vivo; settings: intraperitoneally once per day for 9 consecutive days, observation 60 days
Description: Antitumor activities against leukemia in CDF1 mice as induced by mouse leukemia, Leukemia L-1210 cells
To evaluate the antitumor effects of the compounds of the formula (I') according to the sixth aspect of this invention against experimental tumors in animals, the procedure of Test 1 given hereinbefore is repeated. Thus, CDF1 mice were intraperitoneally transplanted with cells of Leukemia L-1210 (at a dose of 1 x 10^5 cells/mouse). After an elapsed time of 24 hours from the tumor transplantation, a test compound of the formula (I') of the sixth aspect invention to be evaluated was administered intraperitoneally for 9 consecutive days once per day. Observation was made for 60 day, where survival days of each mouse tested were recorded. In comparison with the control test wherein mice were treated with the administration of physiological saline alone, the increase (%) in the life-span of the treated mice was calculated as T/C %, where T is the mean survival days of the treated animals and C is the mean survival days of the untreated control animals. For the comparison, daunomycin and adriamycin were also tested in the same manner.

P388/ADR (resistant) = experiment: Test 2: growth inhibition of cultured mouse leukemia cells, 72 hours incubation; type: cell-based; settings: P 388/ADR cells
Description: (§1) 7-O-(2,6-Dideoxy-2-fluoro-«-L-mannopyranosyl)adriamycinone 14-O-hemipimelate, which is a compounds according to this invention, was then added at varying concentrations. The incubation of the cells was thereafter continued for 72 hours to measure the 50% inhibitory concentration (ICso, ng/m t) of the test compound against the growth of the tunmor cells.

[4] = test system: mouse leukemia P 388/S (sensitive); experiment: as above; type: cell-based; settings: P 388/S cells
Description: as §1

[5] = aqueous buffer, compounds (Ic), phosphate buffer solution of pH 7.4 (0.05 M KH2PO4-NaOH), read-out: Solubility

Molecule	% Increase in life-span (T/C, %) (Leukemia L-1210 cells [1]; Dose 0.15 mg/kg/day)	% Increase in life-span (T/C, %) (Leukemia L-1210 cells [1]; Dose 0.3 mg/kg/day)	% Increase in life-span (T/C, %) (Leukemia L-1210 cells [1]; Dose 0.6 mg/kg/day)	% Increase in life-span (T/C, %) (Leukemia L-1210 cells [1]; Dose 1.25 mg/kg/day)	solubility [2, 5]	% Increase in life-span (T/C, %) (Leukemia L-1210 cells [3]; Dose 0.04 mg/kg/day)	% Increase in life-span (T/C, %) (Leukemia L-1210 cells [3]; Dose 0.08 mg/kg/day)	% Increase in life-span (T/C, %) (Leukemia L-1210 cells [3]; Dose 0.15 mg/kg/day)	% Increase in life-span (T/C, %) (Leukemia L-1210 cells [3]; Dose 0.3 mg/kg/day)	% Increase in life-span (T/C, %) (Leukemia L-1210 cells [3]; Dose 0.6 mg/kg/day)	% Increase in life-span (T/C, %) (Leukemia L-1210 cells [3]; Dose 1.25 mg/kg/day)	further results
C[C@@H]1O[C@@H](O[C@H]2C[C@](O)(C(=O)COC(=O)CCCCCC(=O)O)Cc3c(O)c4c(c(O)c32)C(=O)c2ccccc2C4=O)[C@H](F)[C@H](O)[C@H]1O [Example 11, 7-O-(2,6-dideoxy-2-fluoro-a-L-mannopyranosyl)-4-demethoxyadriamycinone 14-0-hemipimelate]	121%	>363%	175%	111%	< 1000 µg/mL							
4-demethoxy-7-O-(2,6-dideoxy-2-fluoro-α-L-talopyranosyl)adriamycinone 14-0-hemisuberate [Example 19]						93%	96%	138%	175%	245%	158%	solubility ([2]; compounds (I'-c) or (I'-d), phosphate buffer solution of pH 7.4 (0.05M KH2PO4-NaOH)): <1000 µg/mL; solubility in the phosphate buffer solution (in words) ([2]; phosphate buffer solution (0.05 M KH2PO4-NaOH) at pH 7.4): scarcely soluble
COc1cccc2c1C(=O)c1c(O)c3c(c(O)c1C2=O)C[C@@](O)(C(=O)COC(=O)CCCCCC(=O)O)C[C@@H]3O[C@@H]1O[C@@H](C)[C@H](O)[C@@H](O)[C@H]1F [Example 9]	123%	274%	>329%	>346%	32000 µg/mL (≈ 45400 µM)							IC50 (P388/ADR (resistant); Mus musculus, P388/ADR, read-out: IC50 (ng/mℓ) P 388/ADR): 39.8 ng/mL (≈ 0.0565 µM); IC50 ([4]; Mus musculus, P388/S, read-out: IC50 (ng/mℓ) P 388/S): 0.3 ng/mL (≈ 0.000426 µM); % Increase in life-span (T/C, %) (Leukemia L-1210 cells [1]; Dose 2.5 mg/kg/day): >686%; % Increase in life-span (T/C, %) (Leukemia L-1210 cells [1]; Dose 5 mg/kg/day): >463%
COc1cccc2c1C(=O)c1c(O)c3c(c(O)c1C2=O)C[C@@](O)(C(=O)COC(=O)CCCCCC(=O)O)C[C@@H]3O[C@@H]1O[C@@H](C)[C@@H](O)[C@@H](O)[C@H]1F [Referential compound, 7-O-(2,6-dideoxy-2-fluoro-«-L-talopyranosyl)-adriamycinone 14-0-hemipimelate, reference compound]												IC50 (ng/mℓ) P 388/ADR (P388/ADR (resistant)): 485 ng/mL (≈ 0.688 µM); IC50 (ng/mℓ) P 388/S [4]: 3.3 ng/mL (≈ 0.00468 µM)
C[C@@H]1O[C@@H](O[C@H]2C[C@](O)(C(=O)COC(=O)CCCCC(=O)O)Cc3c(O)c4c(c(O)c32)C(=O)c2ccccc2C4=O)[C@H](F)[C@H](O)[C@@H]1O [Example 17, 4-demethoxy-7-O-(2,6-dideoxy-2-fluoro-α-L-talopyranosyl)adriamycinone 14-0-hemiadipate]						99%	99%	130%	166%	242%	> 296%	solubility ([2]; aqueous buffer, compounds (I'-c) or (I'-d), phosphate buffer solution of pH 7.4 (0.05M KH2PO4-NaOH), read-out: Solubility): 6000 µg/mL (≈ 9080 µM)
